According to patent publication US4358441A, “Nicotinic derivatives of glucosamine and related pharmaceutical compositions” (Laboratorio Guidotti & C. S.p.A., priority 1980, dated 1982):

Columns and labels:
[1] = tested on: plasma levels of free glycerol; test: Effect of oral administration on plasma levels of free glycerol in the empty rat; type: in vivo, rat (COBS CD (SD) BR male); conditions: for Percent variations of plasma free glycerol with respect to the controls: empty rat; for Activity on free glycerol: 30 mg/kg oral; for Activity on free glycerol / Time within which the effect on free glycerol disappears: rat; for Time within which the effect on free glycerol disappears: 100 mg/kg oral
[2] = tested on: plasma levels of triglycerides; test: Effect of oral administration on plasma levels of triglycerides in the empty rat; type: in vivo, rat (COBS CD (SD) BR male); conditions: for Percent variations of plasma triglycerides with respect to the controls: empty rat; for Time within which the effect on triglycerides disappears: rat
[3] = tested on: plasma levels of cholesterol; test: Effect of oral administration on plasma levels of cholesterol in the empty rat; type: in vivo, rat (COBS CD (SD) BR male); conditions: for Percent variations of plasma cholesterol with respect to the controls: 100 mg/kg oral referred to nicotinic acid, empty rat
in vivo [4] = conditions: rat
plasma levels of FFA = test: Effect of oral administration on plasma levels of FFA in the empty rat; conditions: for Percent variations of plasma FFA with respect to the controls: empty rat
rats of both sexes = test: Acute toxicity (LD50) in rats of both sexes, oral and intraperitoneal route; conditions: rat
in vivo [5] = conditions: rat, po, 100 mg/kg
[6] = Acute toxicity (LD50) in rats of both sexes, oral and intraperitoneal route; conditions: rat, in vivo, LD50, rat
[7] = Plasma levels (kinetics) of free nicotinic acid after oral administration in the rat; conditions: 100 mg/kg p.o.
[8] = 30 mg/kg oral referred to nicotinic acid, 1 h
[9] = 30 mg/kg oral referred to nicotinic acid, 2 h
[10] = 30 mg/kg oral referred to nicotinic acid, 4 h
[11] = 30 mg/kg oral referred to nicotinic acid, 6 h
[12] = 30 mg/kg oral referred to nicotinic acid, 8 h
[13] = 30 mg/kg oral referred to nicotinic acid, 10 h
[14] = 30 mg/kg oral referred to nicotinic acid, 12 h
[15] = 30 mg/kg oral referred to nicotinic acid, 16 h
[16] = 100 mg/kg oral referred to nicotinic acid, 2 h
[17] = 100 mg/kg oral referred to nicotinic acid, 4 h
[18] = 100 mg/kg oral referred to nicotinic acid, 6 h
[19] = 100 mg/kg oral referred to nicotinic acid, 8 h
[20] = 100 mg/kg oral referred to nicotinic acid, 10 h
[21] = 100 mg/kg oral referred to nicotinic acid, 16 h
[22] = 100 mg/kg oral referred to nicotinic acid, 24 h
[23] = 100 mg/kg oral referred to nicotinic acid, 32 h

In the case of O=C(N[C@H]1C(OC(=O)c2cccnc2)O[C@H](COC(=O)c2cccnc2)[C@@H](OC(=O)c2cccnc2)[C@@H]1OC(=O)c1cccnc1)c1cccnc1 (stereo partly drawn) [GLUN, N-nicotinoyl-glucosamine tetranicotinate], the “Percent variations of plasma free glycerol with respect to the controls” value [1, 8] is reported as -27%, the “Percent variations of plasma free glycerol with respect to the controls” value [1, 9] is reported as -63% and the “Percent variations of plasma free glycerol with respect to the controls” value [1, 10] is reported as -7%. The “Percent variations of plasma free glycerol with respect to the controls” value [1, 11] was -17%, the “Percent variations of plasma free glycerol with respect to the controls” value [1, 12] was -25% and the “Percent variations of plasma free glycerol with respect to the controls” value [1, 13] was -4%. The “Percent variations of plasma free glycerol with respect to the controls” value [1, 14] was -5%, the “Percent variations of plasma free glycerol with respect to the controls” value [1, 15] was “+5%” and the “Activity on free glycerol” value [1] was “active at the 2nd hour”. For the same compound, the “Percent variations of plasma free glycerol with respect to the controls” value [1, 16] was -81%, the “Percent variations of plasma free glycerol with respect to the controls” value [1, 17] was -47% and the “Percent variations of plasma free glycerol with respect to the controls” value [1, 18] was -24%. For the same compound, the “Percent variations of plasma free glycerol with respect to the controls” value [1, 19] was -32%, the “Percent variations of plasma free glycerol with respect to the controls” value [1, 20] was -41% and the “Percent variations of plasma free glycerol with respect to the controls” value [1, 21] was “+3%”. For the same compound, the “Percent variations of plasma free glycerol with respect to the controls” value [1, 22] was 0%, the “Percent variations of plasma free glycerol with respect to the controls” value [1, 23] was “+16%” and the “Time within which the effect on free glycerol disappears” value [1] was “within the sixteenth hour”. The “Percent variations of plasma triglycerides with respect to the controls” value [2, 8] was -2%, the “Percent variations of plasma triglycerides with respect to the controls” value [2, 9] was -45% and the “Percent variations of plasma triglycerides with respect to the controls” value [2, 10] was -44%. For the same compound, the “Percent variations of plasma triglycerides with respect to the controls” value [2, 11] was -41%, the “Percent variations of plasma triglycerides with respect to the controls” value [2, 12] was -36% and the “Percent variations of plasma triglycerides with respect to the controls” value [2, 13] was -62%. The “Percent variations of plasma triglycerides with respect to the controls” value [2, 14] was -31%, the “Percent variations of plasma triglycerides with respect to the controls” value [2, 15] was “+31%” and the “Time within which the effect on triglycerides disappears” value ([2]; 30 mg/kg oral) was ≤ 16 h. For the same compound, the “Percent variations of plasma triglycerides with respect to the controls” value [2, 16] was -52%, the “Percent variations of plasma triglycerides with respect to the controls” value [2, 17] was -65% and the “Percent variations of plasma triglycerides with respect to the controls” value [2, 18] was -72%. For the same compound, the “Percent variations of plasma triglycerides with respect to the controls” value [2, 19] was -75%, the “Percent variations of plasma triglycerides with respect to the controls” value [2, 20] was -65% and the “Percent variations of plasma triglycerides with respect to the controls” value [2, 21] was -67%. The “Percent variations of plasma triglycerides with respect to the controls” value [2, 22] was 3%, the “Percent variations of plasma triglycerides with respect to the controls” value [2, 23] was “+13%” and the “Time within which the effect on triglycerides disappears” value ([2]; 100 mg/kg oral) was “within the twenty fourth hour”. For the same compound, the “Percent variations of plasma cholesterol with respect to the controls” value (“Percent variations of plasma cholesterol” for short) ([3]; 4 h) was “+9%”, the “Percent variations of plasma cholesterol” value ([3]; 6 h) was -4% and the “Percent variations of plasma cholesterol” value ([3]; 8 h) was -13%. The “Percent variations of plasma cholesterol” value ([3]; 10 h) was -29%, the “Percent variations of plasma cholesterol” value ([3]; 16 h) was -53% and the “Percent variations of plasma cholesterol” value ([3]; 24 h) was -37%. For the same compound, the “Percent variations of plasma cholesterol” value ([3]; 32 h) was -42%, the “Percent variations of plasma cholesterol” value ([3]; 48 h) was -29% and the “Cholesterol lowering effect with respect to that of the reference standards” value ([3]; 100 mg/kg oral, rat) was “constantly more relevant”. For the same compound, the Lowering of cholesterolemy ([3]; 100 mg/kg oral, rat) was “depresses the cholesterolemy from the eighth to the fortyeighth hour”, the LD50 (in vivo [4]; ip, female) was 6750 mg/kg and the LD50 (in vivo [4]; ip, male) was 6650 mg/kg. The LD50 (in vivo [4]; po, female, os) was > 8000 mg/kg, the LD50 (in vivo [4]; po, male, os) was > 8000 mg/kg and the “Percent variations of plasma FFA with respect to the controls” value (“Percent variations of plasma FFA” for short) (plasma levels of FFA; [8]) was -33%. The “Percent variations of plasma FFA” value (plasma levels of FFA; [9]) was -67%, the “Percent variations of plasma FFA” value (plasma levels of FFA; [10]) was -3% and the “Percent variations of plasma FFA” value (plasma levels of FFA; [11]) was -16%. The “Depression of plasma FFA” value (plasma levels of FFA; 30 mg/kg oral, rat) was “still active in the second hour”, the “Percent variations of plasma FFA” value (plasma levels of FFA; [16]) was -74% and the “Percent variations of plasma FFA” value (plasma levels of FFA; [17]) was -41%. For the same compound, the “Percent variations of plasma FFA” value (plasma levels of FFA; [18]) was -28%, the “Percent variations of plasma FFA” value (plasma levels of FFA; [19]) was -43% and the “Percent variations of plasma FFA” value (plasma levels of FFA; [20]) was -40%. For the same compound, the “Percent variations of plasma FFA” value (plasma levels of FFA; [21]) was -7%, the “Percent variations of plasma FFA” value (plasma levels of FFA; [22]) was -2% and the “Time within which the effect on FFA disappears” value (plasma levels of FFA; 100 mg/kg oral, rat) was ≤ 16 h. The “Acute toxicity lower than that of nicotinic acid” value (rats of both sexes; intraperitoneal route) was 20 times and the “Acute toxicity lower than that of nicotinic acid” value (rats of both sexes; oral route) was 2 times.
In the case of O=C(O)c1cccnc1 [NICOTINIC ACID, nicotinic acid], the “Percent variations of plasma free glycerol with respect to the controls” value [1, 8] is reported as -72%, the “Percent variations of plasma free glycerol with respect to the controls” value [1, 9] is reported as -27% and the “Percent variations of plasma free glycerol with respect to the controls” value [1, 10] is reported as “+16%”. For the same compound, the “Percent variations of plasma free glycerol with respect to the controls” value [1, 11] was “+15%”, the “Activity on free glycerol” value [1] was “active only after 1 hour” and the “Percent variations of plasma free glycerol with respect to the controls” value [1, 16] was -73%. The “Percent variations of plasma free glycerol with respect to the controls” value [1, 17] was -71%, the “Percent variations of plasma free glycerol with respect to the controls” value [1, 18] was “+9%” and the “Percent variations of plasma free glycerol with respect to the controls” value [1, 19] was “+11%”. For the same compound, the “Percent variations of plasma free glycerol with respect to the controls” value [1, 20] was “+16%”, the “Percent variations of plasma free glycerol with respect to the controls” value [1, 21] was -12% and the “Percent variations of plasma free glycerol with respect to the controls” value [1, 22] was -4%. For the same compound, the “Time within which the effect on free glycerol disappears” value [1] was “within the sixth hour”, the “Percent variations of plasma triglycerides with respect to the controls” value [2, 8] was -49% and the “Percent variations of plasma triglycerides with respect to the controls” value [2, 9] was -49%. For the same compound, the “Percent variations of plasma triglycerides with respect to the controls” value [2, 10] was “+8%”, the “Percent variations of plasma triglycerides with respect to the controls” value [2, 11] was “+17%” and the “Time within which the effect on triglycerides disappears” value ([2]; 30 mg/kg oral) was ≤ 4 h. For the same compound, the “Percent variations of plasma triglycerides with respect to the controls” value [2, 16] was -57%, the “Percent variations of plasma triglycerides with respect to the controls” value [2, 17] was -58% and the “Percent variations of plasma triglycerides with respect to the controls” value [2, 18] was -59%. For the same compound, the “Percent variations of plasma triglycerides with respect to the controls” value [2, 19] was -38%, the “Percent variations of plasma triglycerides with respect to the controls” value [2, 20] was “+4%” and the “Percent variations of plasma triglycerides with respect to the controls” value [2, 21] was “+21%”. For the same compound, the “Percent variations of plasma triglycerides with respect to the controls” value [2, 22] was -16%, the “Time within which the effect on triglycerides disappears” value ([2]; 100 mg/kg oral) was “within the tenth hour” and the “Percent variations of plasma cholesterol” value ([3]; 4 h) was -12%. The “Percent variations of plasma cholesterol” value ([3]; 6 h) was -12%, the “Percent variations of plasma cholesterol” value ([3]; 8 h) was -13% and the “Percent variations of plasma cholesterol” value ([3]; 10 h) was -17%. For the same compound, the “Percent variations of plasma cholesterol” value ([3]; 16 h) was -14%, the “Percent variations of plasma cholesterol” value ([3]; 24 h) was -27% and the Lowering of cholesterolemy ([3]; 100 mg/kg oral, rat) was “lowered at the eighth, tenth and twenty fourth hour”. The Tmax (in vivo [5]) was ≤ 30 min, the concentration at 0.5 h (in vivo [5]) was 108000 ng/mL and the concentration at 1 h (in vivo [5]) was 106000 ng/mL. It also gave a concentration at 2 h (in vivo [5]) of 98300 ng/mL, a concentration at 4 h (in vivo [5]) of 10600 ng/mL and a concentration at 6 h (in vivo [5]) of 760 ng/mL. It also gave a concentration at 8 h (in vivo [5]) of 250 ng/mL, a concentration at 12 h (in vivo [5]) of 490 ng/mL and a concentration at 16 h (in vivo [5]) of 120 ng/mL. The “Percent variations of plasma FFA” value (plasma levels of FFA; [8]) was -81%, the “Percent variations of plasma FFA” value (plasma levels of FFA; [9]) was -43% and the “Percent variations of plasma FFA” value (plasma levels of FFA; [10]) was “+23%”. For the same compound, the “Percent variations of plasma FFA” value (plasma levels of FFA; [11]) was “+11%”, the FFA rebound (plasma levels of FFA; 30 mg/kg oral, rat) was “causes FFA rebound in the fourth hour” and the “Percent variations of plasma FFA” value (plasma levels of FFA; [16]) was -77%. The “Percent variations of plasma FFA” value (plasma levels of FFA; [17]) was -68%, the “Percent variations of plasma FFA” value (plasma levels of FFA; [18]) was “+23%” and the “Percent variations of plasma FFA” value (plasma levels of FFA; [19]) was “+23%”. For the same compound, the “Percent variations of plasma FFA” value (plasma levels of FFA; [20]) was “+13%”, the “Percent variations of plasma FFA” value (plasma levels of FFA; [21]) was -9% and the “Percent variations of plasma FFA” value (plasma levels of FFA; [22]) was -5%. The FFA rebound (plasma levels of FFA; 100 mg/kg oral, rat) was “eighth”, the “Time within which the effect on FFA disappears” value (plasma levels of FFA; 100 mg/kg oral, rat) was ≤ 6 h and the LD50 ([6]; ip, female) was 296 mg/kg. The LD50 ([6]; ip, male) was 328 mg/kg, the LD50 ([6]; po, female, os) was 3850 mg/kg and the LD50 ([6]; po, male, os) was 3860 mg/kg. The “Peak plasma concentration of free nicotinic acid, times higher than that of niceritrole” value [7] was “about two times higher”.
